Data taken from patent US9044429B2, “Personal care compositions comprising a methyl naphthalenyl ketone or a derivative thereof” (The Gillette Company, priority 2010, dated 2015).

Tests used:
Assay type in all cases: cell-based
human TRPV1 [1] = target: T1, human TRPV1 (Homo sapiens, UniProt Q8NER1); experiment: Pre-Incubation Test (FLIPR intracellular calcium, HEK-293 cells, capsaicin activator); conditions: test compound final 100 μM
T1 construct: expressed in transfected cells; host or cells: HEK-293
T1 sequence (Q8NER1 whole entry): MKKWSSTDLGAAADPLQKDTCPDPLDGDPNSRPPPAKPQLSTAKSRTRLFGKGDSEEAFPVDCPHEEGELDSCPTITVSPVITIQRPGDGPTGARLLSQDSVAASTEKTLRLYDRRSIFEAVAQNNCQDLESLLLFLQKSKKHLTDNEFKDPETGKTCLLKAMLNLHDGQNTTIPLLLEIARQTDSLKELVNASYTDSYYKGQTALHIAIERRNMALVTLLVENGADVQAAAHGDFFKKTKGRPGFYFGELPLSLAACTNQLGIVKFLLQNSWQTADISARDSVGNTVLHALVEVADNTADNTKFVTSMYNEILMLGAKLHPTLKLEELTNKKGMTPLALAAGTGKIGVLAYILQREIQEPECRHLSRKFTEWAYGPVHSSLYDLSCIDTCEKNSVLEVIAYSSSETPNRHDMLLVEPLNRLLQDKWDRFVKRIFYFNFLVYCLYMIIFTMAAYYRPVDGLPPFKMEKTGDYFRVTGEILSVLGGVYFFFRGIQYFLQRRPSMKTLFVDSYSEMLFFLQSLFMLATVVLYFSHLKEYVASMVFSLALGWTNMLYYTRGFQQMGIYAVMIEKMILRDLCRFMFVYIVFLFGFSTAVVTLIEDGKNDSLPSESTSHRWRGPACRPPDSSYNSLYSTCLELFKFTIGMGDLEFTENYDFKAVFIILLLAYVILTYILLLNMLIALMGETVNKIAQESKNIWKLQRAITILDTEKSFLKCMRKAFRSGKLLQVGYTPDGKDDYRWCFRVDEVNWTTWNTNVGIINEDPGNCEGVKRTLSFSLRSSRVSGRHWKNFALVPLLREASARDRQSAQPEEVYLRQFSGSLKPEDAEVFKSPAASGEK
Protocol: (§1) The Pre-Incubation Test and Direct Addition Test Methods, as defined herein, can be conducted on either TRPV1 or TRPA1 receptors.
(§2) Pre-Incubation Test Method: First, the intracellular calcium ion (Ca^+2) levels in TRPV1 and TRPA1 receptors is measured. HEK-293 (human embryonic kidney) cells stably transfected with human TRPV1 or TRPA1 are grown in 15 ml growth medium [high glucose DMEM (Dulbecco's Modification of Eagle's Medium) supplemented with 10% FBS (fetal bovine serum), 100 μg/ml Penicillin/streptomycin, 100 μg/ml G418] in a 75 Cm^2 flask for 3 days at 33° C. in a mammalian cell culture incubator set at 5% CO2. Cells are detached with addition of 10 ml of PBS (phosphate buffered saline) by hand shaking gently. […] Fluo-4 is a fluorescent dye used for quantifying cellular Ca^2+ concentrations in the 100 nM to 1 microM range. […]
(§3) The pellet cells are re-suspended in 10 ml assay buffer and 90 μl aliquots (50,000 cells) per well delivered to a 96-well assay plate containing 10 μl of test compounds (1 mM in assay buffer, final concentration 100 μM) or buffer control and incubated at room temperature for 30 minutes. After 30 minutes, the plate is placed into a fluorometric imaging plate reader (FLIPR^384 from Molecular Devices) and basal fluorescence recorded (excitation wave length 488 nm and emission wave length 510 nm). […]

human TRPA1 [2] = target: T2, human TRPA1 (Homo sapiens, UniProt O75762); experiment: Pre-Incubation Test (FLIPR intracellular calcium, HEK-293 cells, AITC activator); conditions: test compound final 100 μM
T2 construct: expressed in transfected cells; host or cells: HEK-293
T2 sequence (O75762 whole entry): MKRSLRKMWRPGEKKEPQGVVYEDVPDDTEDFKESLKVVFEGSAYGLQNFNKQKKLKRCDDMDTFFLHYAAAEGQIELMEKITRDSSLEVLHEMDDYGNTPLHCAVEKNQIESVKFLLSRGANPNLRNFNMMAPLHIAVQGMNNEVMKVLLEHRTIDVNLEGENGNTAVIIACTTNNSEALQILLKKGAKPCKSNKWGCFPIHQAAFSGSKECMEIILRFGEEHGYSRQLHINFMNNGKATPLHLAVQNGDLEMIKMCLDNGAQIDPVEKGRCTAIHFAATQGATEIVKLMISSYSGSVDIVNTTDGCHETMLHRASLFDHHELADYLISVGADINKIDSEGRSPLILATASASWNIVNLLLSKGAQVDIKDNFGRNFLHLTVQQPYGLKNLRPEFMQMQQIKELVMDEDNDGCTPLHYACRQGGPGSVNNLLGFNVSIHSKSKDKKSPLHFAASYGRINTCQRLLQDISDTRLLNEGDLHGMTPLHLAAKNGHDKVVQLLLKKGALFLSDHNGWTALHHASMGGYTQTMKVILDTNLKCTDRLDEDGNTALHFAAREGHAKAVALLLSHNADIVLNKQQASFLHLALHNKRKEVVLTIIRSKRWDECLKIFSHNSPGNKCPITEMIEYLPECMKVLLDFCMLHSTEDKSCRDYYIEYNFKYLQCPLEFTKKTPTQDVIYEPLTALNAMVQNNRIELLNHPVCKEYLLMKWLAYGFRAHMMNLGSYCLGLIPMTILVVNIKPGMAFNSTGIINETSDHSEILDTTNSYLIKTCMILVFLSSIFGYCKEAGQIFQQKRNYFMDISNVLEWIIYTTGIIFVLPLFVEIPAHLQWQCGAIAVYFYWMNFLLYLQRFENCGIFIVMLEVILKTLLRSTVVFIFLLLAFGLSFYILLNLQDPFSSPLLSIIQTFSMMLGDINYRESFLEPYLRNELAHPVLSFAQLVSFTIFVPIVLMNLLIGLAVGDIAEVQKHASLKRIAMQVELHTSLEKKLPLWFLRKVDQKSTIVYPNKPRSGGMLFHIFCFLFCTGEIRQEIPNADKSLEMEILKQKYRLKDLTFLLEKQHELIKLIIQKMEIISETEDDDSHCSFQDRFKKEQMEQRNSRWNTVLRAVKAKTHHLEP
Protocol: as §1, §2, §3

human TRPV1 [3] = target: T1, human TRPV1; experiment: Direct Addition Test (FLIPR intracellular calcium, HEK-293 cells); conditions: compound final 100 μM
Protocol: as §1
(§4) Pre-Incubation Test Method: First, the intracellular calcium ion (Ca^+2) levels in TRPV1 and TRPA1 receptors is measured. HEK-293 (human embryonic kidney) cells stably transfected with human TRPV1 or TRPA1 are grown in 15 ml growth medium [high glucose DMEM (Dulbecco's Modification of Eagle's Medium) supplemented with 10% FBS (fetal bovine serum), 100 μg/ml Penicillin/streptomycin, 100 μg/ml G418] in a 75 Cm^2 flask for 3 days at 33° C. in a mammalian cell culture incubator set at 5% CO2. Cells are detached with addition of 10 ml of PBS (phosphate buffered saline) by hand shaking gently. Cells are transferred to a 50 ml tube and centrifuged at 850 rpm for 3 minutes to remove PBS. After centrifugation, a pellet of cells is formed in the bottom of the tube separating them from the supernatant solution. The supernatant is discarded and the cell pellet is suspended in 1 ml of fresh growth medium to which 5 μl (12.5 μg) of Fluo-4 AM (Molecular Probes, Inc.) calcium indicator is added and incubated for 30 min with gentle shaking on a plate shaker. Fluo-4 is a fluorescent dye used for quantifying cellular Ca^2+ concentrations in the 100 nM to 1 microM range. At the end of the 30 minutes, 45 ml of assay buffer [1×HBSS (Hank's Balanced Salt Solution), 20 mM HEPES (4-(2-Hydroxyethyl)-1-piperazineethanesulfonic acid)] is added to wash cells and the resulting combination is then centrifuged at 850 rpm for 3 minutes to remove excess buffer and Fluo-4 AM calcium indicator.
(§5) The pellet cells are re-suspended in 10 ml assay buffer and 90 μl aliquots (50,000 cells) per well delivered to a 96-well assay plate containing 10 μl of test compounds (1 mM in assay buffer, final concentration 100 μM) or buffer control and incubated at room temperature for 30 minutes. After 30 minutes, the plate is placed into a fluorometric imaging plate reader (FLIPR^384 from Molecular Devices) and basal fluorescence recorded (excitation wave length 488 nm and emission wave length 510 nm). […] Then 20 μl of the activators [1.8 μM Capsaicin (final concentration 300 nM) for TRPV1 or 300 μM AITC (final concentration 50 μM) for TRPA1 is added by FLIPR automatically and fluorescence recorded immediately.
(§6) Direct Addition Test Method (for determining the direct effect of test compounds on TRPV1 and TRPA1): All procedures are same as the pre-incubation test except 10 μl assay buffer instead of 10 μl test compounds in the 96-well assay plates. The fluorescence is measured immediately after addition of 20 μl of 600 μM each compound (final concentration 100 μM). […] The percentage of up-regulation or down-regulation is calculated based on the fluorescence measurement.

human TRPA1 [4] = target: T2, human TRPA1; experiment: as above; conditions: compound final 100 μM
Protocol: as §1, §4, §5, §6

[5] = calculated from fluorescence relative to activator

Compound: CC(=O)C1(C)CC2=C(CCCC2(C)C)CC1C (centres unmarked) [Iso E Super, 1-(1,2,3,4,5,6,7,8-octahydro-2,3,8,8-tetramethyl-2naphthalenyl)-ethan-1-one]
- Fluorescence value after adding Iso E Super (human TRPV1 [1]; 30 min at room temperature, then capsaicin final 300 nM): 2334.51 fluorescence units
- % Regulation (human TRPV1 [1]; [5]): 21.82%
- Fluorescence value after adding Iso E Super (human TRPA1 [2]; 30 min at room temperature, then AITC final 50 μM): −57.37 fluorescence units
- % Regulation (human TRPA1 [2]; [5]): −0.40%
- % Regulation (human TRPV1 [3]; [5]): −0.71%
- Fluorescence value after adding Iso E Super (human TRPV1 [3]; measured immediately): −82.62 fluorescence units
- % Regulation (human TRPA1 [4]; [5]): 11.53%
- Fluorescence value after adding Iso E Super (human TRPA1 [4]; measured immediately): 1386.593 fluorescence units
